Earlier results on two compounds are cited in patent US6491952B1, “Cholesterol lowering composition” (Triple Crown AB, priority 1998, dated 2002).

Structures are written as SMILES.

The conditions of this data set: daily intake; references 1-5.

Consider `CC[C@H](CC[C@@H](C)[C@H]1CC[C@H]2[C@@H]3CC=C4C[C@@H](O)CC[C@]4(C)[C@H]3CC[C@]12C)C(C)C` [β-sitosterol], for which the cholesterol lowering effect entry was “cholesterol lowering effect”.
Turning to `CC[C@H](CC[C@@H](C)[C@H]1CC[C@H]2[C@@H]3CC[C@H]4C[C@@H](O)CC[C@]4(C)[C@H]3CC[C@]12C)C(C)C` [β-sitostanol], the cholesterol lowering effect result is “cholesterol lowering effect”.
